Patent US20070249670A1, “Glycogen Phosphorylase Inhibitor Compounds and Pharmaceutical Compositions Thereof” (SMITHKLINE BEECHAM CORPORATION, priority 2004, published 2007)

target: T1, human liver glycogen phosphorylase a (HLGPa) (Homo sapiens, UniProt P06737); assay: Human liver glycogen phosphorylase a enzymatic activity assay (coupled, fluorescent resorufin readout, with and without 10 mM glucose); format: biochemical; settings: human liver glycogen phosphorylase a enzymatic activity assay
T1 construct: creating a full-length cDNA fused at the 5′ end to codons for methionine-glycine-alanine-histidine; 6xHis tag (leader Met-Gly-Ala-His6-Gly-Gly) (N); made in house; host or cells: E. coli (bacterial expression plasmid pTXK1007LTev)
T1 sequence (P06737 2-847 limits assumed): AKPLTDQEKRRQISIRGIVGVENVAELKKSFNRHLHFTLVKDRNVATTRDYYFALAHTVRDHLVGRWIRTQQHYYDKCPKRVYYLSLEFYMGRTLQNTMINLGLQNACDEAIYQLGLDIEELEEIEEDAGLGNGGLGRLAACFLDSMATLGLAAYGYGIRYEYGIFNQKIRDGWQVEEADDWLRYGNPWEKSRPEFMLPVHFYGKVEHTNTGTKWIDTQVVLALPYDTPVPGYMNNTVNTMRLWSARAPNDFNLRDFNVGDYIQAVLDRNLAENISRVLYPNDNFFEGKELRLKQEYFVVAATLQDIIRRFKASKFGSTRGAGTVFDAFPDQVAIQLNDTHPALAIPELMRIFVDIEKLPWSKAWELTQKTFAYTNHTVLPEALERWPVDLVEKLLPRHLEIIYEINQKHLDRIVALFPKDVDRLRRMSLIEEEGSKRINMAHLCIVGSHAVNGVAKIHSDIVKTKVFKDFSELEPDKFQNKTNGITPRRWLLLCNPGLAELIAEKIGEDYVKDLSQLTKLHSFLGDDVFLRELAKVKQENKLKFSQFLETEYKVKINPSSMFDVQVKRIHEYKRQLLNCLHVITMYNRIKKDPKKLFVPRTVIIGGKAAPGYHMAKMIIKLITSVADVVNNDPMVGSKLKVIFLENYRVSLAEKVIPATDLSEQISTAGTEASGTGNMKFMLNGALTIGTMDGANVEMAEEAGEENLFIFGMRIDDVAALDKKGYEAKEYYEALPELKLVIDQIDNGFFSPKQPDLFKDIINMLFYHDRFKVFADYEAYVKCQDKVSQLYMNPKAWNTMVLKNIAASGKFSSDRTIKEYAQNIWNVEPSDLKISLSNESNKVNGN

| SMILES | IC50 [µM] |
| --- | --- |
| Cc1cc(C)c(NC(=O)Nc2cc3ccccc3cc2C(=O)NCCC(=O)O)c(C)c1 [Example 494, N-{[3-({[(2,4,6-trimethylphenyl)amino]carbonyl}amino)-2-naphthalenyl]carbonyl}-beta-alanine] | 0.36 |
| O=C(Nc1cc2ccccc2cc1C(=O)Nc1cscc1C(=O)O)Nc1c(Cl)cccc1Cl [Example 497, 4-({[3-({[(2,6-dichlorophenyl)amino]carbonyl}amino)-2-naphthalenyl]carbonyl}amino)-3-thiophenecarboxylic acid] | 17.7 |
| Cc1cccc(C)c1NC(=O)Nc1cc2ccccc2cc1C(=O)NC(C)CC(=O)O (centres unmarked) [Example 500, 3-({[3-({[(2,6-dimethylphenyl)amino]carbonyl}amino)-2-naphthalenyl]carbonyl}amino)butanoic acid] | 2.14 |
| Cc1cc(C)c(NC(=O)Nc2cc3ccccc3cc2C(=O)N[C@H](C(=O)O)C2CCC(O)CC2)c(C)c1 (stereo partly drawn) [Example 502, (2S)-(4-hydroxycyclohexyl)({[3-({[(2,4,6-trimethylphenyl)amino]carbonyl}amino)-2-naphthalenyl]carbonyl}amino)ethanoic acid] | 0.013 |
| COC(=O)[C@H](CC(=O)N(C)C)NC(=O)c1ccc(-c2ccc(OC)cc2)cc1NC(=O)Nc1c(C)cc(C)cc1C [Example 503, methyl N^4,N^4-dimethyl-N^2-{[4′-(methyloxy)-3-({[(2,4,6-trimethylphenyl)amino]carbonyl}amino)-4-biphenylyl]carbonyl}-L-asparaginate] | 11.1 |
| COc1ccc(-c2ccc(C(=O)N[C@@H](CC(=O)N(C)C)C(=O)O)c(NC(=O)Nc3c(C)cc(C)cc3C)c2)cc1 [Example 504, N^4,N^4-dimethyl-N^2-{[4′-(methyloxy)-3-({[(2,4,6-trimethylphenyl)amino]carbonyl}amino)-4-biphenylyl]carbonyl}-L-asparagine] | 0.032 |
| Cc1cc(CC2CC2)cc(C)c1NC(=O)Nc1cc(-c2cccc(F)c2)ccc1C(=O)N[C@H](C(=O)O)[C@@H](C)OC(C)(C)C [Example 505, N-({3-[({[4-(cyclopropylmethyl)-2,6-dimethylphenyl]amino}carbonyl)amino]-3′-fluoro-4-biphenylyl}carbonyl)-O-(1,1-dimethylethyl)-L-threonine] | 0.003 |
| Cc1cc(C)c(NC(=O)Nc2cc(-c3cccc(F)c3)ccc2C(=O)N[C@@H](CC(=O)O)C(=O)O)c(C)c1 [Example 507, N-{[3′-fluoro-3-({[(2,4,6-trimethylphenyl)amino]carbonyl}amino)-4-biphenylyl]carbonyl}-L-aspartic acid] | 0.053 |
| Cc1cc(C)c(NC(=O)Nc2cc3ccccc3cc2C(=O)N[C@@H](COCc2ccccc2)C(=O)O)c(C)c1 [Example 509, O-(Phenylmethyl)-N-{[3-({[(2,4,6-trimethylphenyl)amino]carbonyl}amino)-2-naphthalenyl]carbonyl}-L-serine] | 0.028 |
| Cc1cc(C)c(NC(=O)Nc2cc3ccccc3cc2C(=O)N[C@@H](Cc2ccccc2)C(=O)O)c(C)c1 [Example 514, N-{[3-({[(2,4,6-trimethylphenyl)amino]carbonyl}amino)-2-naphthalenyl]carbonyl}-L-phenylalanine] | 0.052 |
| Cc1cc(C)c(NC(=O)Nc2cc(F)ccc2C(=O)N[C@@H](CCNC(=O)OC(C)(C)C)C(=O)O)c(C)c1 [Example 515, (2S)-4-({[(1,1-dimethylethyl)oxy]carbonyl}amino)-2-({[4-fluoro-2-({[(2,4,6-trimethylphenyl)amino]carbonyl}amino)phenyl]carbonyl}amino)butanoic acid] | 1.9 |
| Cc1cc(C)c(NC(=O)Nc2cc3ccccc3cc2C(=O)N[C@@H](CCNC(=O)OC(C)(C)C)C(=O)O)c(C)c1 [Example 516, (2S)-4-({[(1,1-dimethylethyl)oxy]carbonyl}amino)-2-({[3-({[(2,4,6-trimethylphenyl)amino]carbonyl}amino)-2-naphthalenyl]carbonyl}amino)butanoic acid] | 0.089 |
| Cc1cc(C)c(NC(=O)Nc2cc(F)ccc2C(=O)N[C@H](C(=O)O)[C@@H](C)OCc2ccccc2)c(C)c1 [Example 521, N-{[4-fluoro-2-({[(2,4,6-trimethylphenyl)amino]carbonyl}amino)phenyl]carbonyl}-O-(phenylmethyl)-L-threonine] | 0.134 |
| Cc1cc(C)c(NC(=O)Nc2cc(-c3ccc(F)c(F)c3)ccc2C(=O)N[C@@H](C(=O)O)[C@H](C)OC(C)(C)C)c(C)c1 [Example 522, N-{[3′,4′-difluoro-3-({[(2,4,6-trimethylphenyl)amino]carbonyl}amino)-4-biphenylyl]carbonyl}-O-(1,1-dimethylethyl)-D-threonine] | 0.675 |
| COc1ccccc1-c1ccc(C(=O)N[C@H](C(=O)O)[C@@H](C)OC(C)(C)C)c(NC(=O)Nc2c(C)cc(C)cc2C)c1 [Example 524, O-(1,1-Dimethylethyl)-N-{[2′-(methyloxy)-3-({[(2,4,6-trimethylphenyl)amino]carbonyl}amino)-4-biphenylyl]carbonyl}-L-threonine] | 0.011 |
| Cc1cc(C)c(NC(=O)Nc2cc(-c3cc(F)cc(F)c3)ccc2C(=O)N[C@H](C(=O)O)[C@@H](C)OC(C)(C)C)c(C)c1 [Example 525, N-{[3′,5′-Difluoro-3-({[(2,4,6-trimethylphenyl)amino]carbonyl}amino)-4-biphenylyl]carbonyl}-O-(1,1-dimethylethyl)-L-threonine] | 0.007 |
| Cc1cc(C)c(NC(=O)Nc2cc(-c3cc(F)cc(F)c3)ccc2C(=O)N[C@H](C(=O)O)C2CCCCC2)c(C)c1 [Example 526, (2S)-Cyclohexyl({[3′,5′-difluoro-3-({[(2,4,6-trimethylphenyl)amino]carbonyl}amino)-4-biphenylyl]carbonyl}amino)ethanoic acid] | 0.005 |

Second part, the molecule after the results:

| IC50 [µM] | SMILES |
| --- | --- |
| 0.3 | Cc1cc(C)c(NC(=O)Nc2cc3ccccc3cc2C(=O)Nc2cccc(C(=O)O)c2)c(C)c1 [Example 495, 3-({[3-({[(2,4,6-trimethylphenyl)amino]carbonyl}amino)-2-naphthalenyl]carbonyl}amino)benzoic acid] |
| 0.11 | Cc1cc(C)c(NC(=O)Nc2cc3ccccc3cc2C(=O)Nc2cc(C(=O)O)cc(C(=O)O)c2)c(C)c1 [Example 498, 5-({[3-({[(2,4,6-trimethylphenyl)amino]carbonyl}amino)-2-naphthalenyl]carbonyl}amino)-1,3-benzenedicarboxylic acid] |
| 0.012 | Cc1cc(C)c(NC(=O)Nc2cc3ccccc3cc2C(=O)N[C@H](C(=O)O)c2ccc(O)cc2)c(C)c1 [Example 501, (2S)-(4-hydroxyphenyl)({[3-({[(2,4,6-trimethylphenyl)amino]carbonyl}amino)-2-naphthalenyl]carbonyl}amino)ethanoic acid] |
| 1.09 | CCOC(=O)C[C@H](NC(=O)c1ccc(-c2cccc(F)c2)cc1NC(=O)Nc1c(C)cc(C)cc1C)C(=O)O [Example 506, (2S)-4-(ethyloxy)-2-({[3′-fluoro-3-({[(2,4,6-trimethylphenyl)amino]carbonyl}amino)-4-biphenylyl]carbonyl}amino)-4-oxobutanoic acid] |
| 0.042 | Cc1cc(C)c(NC(=O)Nc2cc(-c3ccc(F)c(F)c3)ccc2C(=O)N[C@@H](COCc2ccccc2)C(=O)O)c(C)c1 [Example 510, N-{[3′,4′-Difluoro-3-({[(2,4,6-trimethylphenyl)amino]carbonyl}amino)-4-biphenylyl]carbonyl}-O-(phenylmethyl)-L-serine] |
| 7.43 | O=C(Nc1ccc(-c2ccccc2)cc1)Nc1cc2ccccc2cc1C(=O)NC1(C(=O)O)CCCCC1 [Example 513, 1-{[(3-{[(4-biphenylylamino)carbonyl]amino}-2-naphthalenyl)carbonyl]amino}cyclohexanecarboxylic acid] |
| 0.34 | Cc1cc(-c2ccccc2)cc(C)c1NC(=O)Nc1cc2ccccc2cc1C(=O)NC1(C(=O)O)CCCCCC1 [Example 518, 1-({[3-({[(3,5-dimethyl-4-biphenylyl)amino]carbonyl}amino)-2-naphthalenyl]carbonyl}amino)cycloheptanecarboxylic acid] |
| 0.007 | Cc1cc(C)c(NC(=O)Nc2cc(-c3ccc(F)c(F)c3)ccc2C(=O)N[C@H](C(=O)O)[C@@H](C)OC2CCC2)c(C)c1 [Example 519, O-cyclobutyl-N-{[3′,4′-difluoro-3-({[(2,4,6-trimethylphenyl)amino]carbonyl}amino)-4-biphenylyl]carbonyl}-L-threonine] |
| 0.008 | COc1ccccc1-c1ccc(C(=O)N[C@H](C(=O)O)C2CCCCC2)c(NC(=O)Nc2c(C)cc(C)cc2C)c1 [Example 523, (2S)-cyclohexyl({[2′-(methyloxy)-3-({[(2,4,6-trimethylphenyl)amino]carbonyl}amino)-4-biphenylyl]carbonyl}amino)ethanoic acid] |
